US7547439B1, “Tumor rejection antigens” (Ludwig Institute for Cancer Research, priority 1998, dated 2009)
Entries after “also recorded” stand apart in the source; their conditions may differ.

Test system: LB1751-EBV cells
Assay: Chromium release assay: lysis by CTL 447A/5 of peptide-sensitised LB1751-EBV cells
Format: cell-based, human
Conditions: for Lysis by CTL 447A/5 of peptide-pulsed LB1751-EBV cells pre-treated with anti-HLA-A2 mAb MA2.1: MA2.1 (1/5 dilution of hybridoma supernatant) during 51Cr-labeling, E/T 20, 4 h; for Lysis by CTL 447A/5 of LB1751-EBV cells incubated with peptide: peptide concentration as high as 10 μM
Protocol: FIG. 4. […] (A) LB1751-EBV cells pulsed with peptides derived from MAGE-A10. Chiromium-labelled autologous EBV-transformed lymphoblastoid cells LB1751-EBV were pulsed for 30 min with peptides as indicated at various concentrations before addition of CTL 447A/5 at an E/T ratio of 20. Chromium release was measured after 4 h. (B) Enhancement by mAb MA2.1 of lysis of LB1751-EBV cells pulsed with MAGE-A10 peptides. LB1751-EBV cells were pre-treated with or without anti-HLA-A2 antibody MA2.1. The pre-treatment was performed by adding mAb MA2.1 during ^51Cr-labeling. Peptide sensitisation and chromium release assay were carried out as in (A).
FIG. 5. […] LB1751-EBVcells were pre-treated with or without anti-HLA-A2 antibody MA2. 1. Ab treatment and peptide sensitisation of the cells and chromium release assay were carried out as in FIG. 4.
In the amino acid sequence corresponding to the nucleotides 547-825 there are two nonapeptides, […] (codons 183-191 in the ORF) (SEQ. ID. NO. 46) and […] (254-262) (SEQ. ID. NO. 42), which conform to the HLA-A2.1 peptide binding motif, i.e., a nona- or decapeptide with Leu or Met at position 2 and Leu, Val or Ile at its C-terminus (Rammensee, H. G., et al., 1995, Immunogenetics, 41:178-228). These two peptides and their overlapping decapeptides were synthesised on solid phase using F-moc for transient NH2-terminal protection and characterised by mass spectrometry. The peptides were >90% pure, as indicated by analytical HPLC, and used to sensitise autologous lymphoblastoid cell line LB1751-EBV in a chromium release assay as described in (Boon, T., et al., 1980, J. Exp. Med 152:1184-1193) but modified as follows. The target cells were ^51Cr-labeled for 1 h at 37° C. and then washed extensively. 1,000 target cells were then incubated in 96-well microplates in the presence of various concentrations of peptides for 30 min at 37° C. and CTLs were added at an E/T ratio of 20. Chromium release was measured after 4 h at 37° C.
Enhancement of peptide binding to the HLA-A2 molecule was achieved by incubation of target cells during ^51Cr-labeling with a ⅕ dilution of hybridoma culture supernatant of mAb MA2.1 (McMichael, A. J., et al., 1980, Hum. Immunol. 1:121-129; and Bodmer, H., et al., 1989, Nature 342:443-446).
This peptide and its overlapping decapeptide […] (codons 232-241) (SEQ. ID. NO. 45) were synthesised by the technique described above. LB1751-EVB cells incubated with either of the peptides, at a concentration of as high as 10 μM peptide, were not lysed by CTL 447A/5. […] Enhancement of peptide binding to the HLA-A2 molecule was achieved by incubation of target cells during ^51Cr-labeling with a ⅕ dilution of hybridoma culture supernatant of mAb MA2.1 (McMichael, A. J., et al., 1980, Hum. Immunol. 1: 121-129; and Bodmer, H., et al., 1989, Nature 342.443-446).

[1] = cells pulsed 30 min with peptide at various concentrations, E/T ratio 20, chromium release after 4 h, no mAb MA2.1

| Sequence | Lysis by CTL 447A/5 of peptide-pulsed LB1751-EBV cells pre-treated with anti-HLA-A2 mAb MA2.1 | Sensitisation of LB1751-EBV cells to lysis by CTL 447A/5 [1] | Sensitisation of LB1751-EBV cells to lysis by CTL 447A/5 (peptide concentration 100 μM) | Lysis by CTL 447A/5 of LB1751-EBV cells incubated with peptide |
| --- | --- | --- | --- | --- |
| CMLLVFGIDV (listed as Homo sapiens) [decapeptide from MAGE-A10 (182-191)] | failed to confer recognition | failed to confer recognition | – | – |
| GLYDGMEHL (listed as Homo sapiens) [nonapeptide encoded by MAGE-A10 (codons 254-262), presented by HLA-A2] | significantly increased sensitivity to lysis | could sensitise LB1751-EBV cells to lysis; also recorded: recognises | – | – |
| GLYDGMEHLI (listed as Homo sapiens) [decapeptide encoded by MAGE-A10 (254-263)] | significantly increased sensitivity to lysis | less efficiently | – | – |
| GLYDGREHS (listed as Homo sapiens) [nonapeptide encoded by MAGE-A8 (codons 232-240)] | enhancement of lysis | – | did sensitise LB1751-EBV cells to lysis | not lysed |
| GLYDGREHSV (listed as Homo sapiens) [decapeptide encoded by MAGE-A8 (codons 232-241)] | not | – | – | not lysed |
| MLLVFGIDV [nonapeptide from MAGE-A10 (codons 183-191)] | failed to confer recognition | failed to confer recognition | – | – |
